Laboratory results as given in article PMC6384738, “Structure-Function Studies of Polymyxin B Lipononapeptides” (Molecules, 2019).
In brackets after ≈: the same amount, converted by molar mass. Where a SMILES comes first, the peptide text is derived from it. Bridges are numbered along the chain shown (N, C = ends). [ ]: non-standard residue; d: D form. The star is where a group is joined. Hexanoyl(6-Ph) = O=C(CCCCCc1ccccc1)*; dDab = NCC[C@@H](N)C(=O)O; Octanoyl = CCCCCCCC(=O)*; Dab = NCC[C@H](N)C(=O)O

Tests used:
[1] = test system: A. baumannii ATCC 19606; assay: microbe, parasite or virus in culture
Procedure, shortened: (§1)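 Antibacterial activity: broth microdilution MIC (mg/L) against the reference isolate.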

[2] = test system: K. pneumoniae ATCC 700603; assay: microbe, parasite or virus in culture
Procedure, shortened: as §1

[3] = test system: P. aeruginosa ATTC 27853; assay: microbe, parasite or virus in culture
Procedure, shortened: as §1

[4] = test system: E. coli ATCC 25922; assay: microbe, parasite or virus in culture
Procedure, shortened: as §1

[5] = test system: K. pneumoniae ATCC 13833; assay: microbe, parasite or virus in culture
Procedure, shortened: as §1

[6] = test system: K. pneumoniae BAA 2146; assay: microbe, parasite or virus in culture
Procedure, shortened: as §1

[7] = test system: S. aureus ATCC 25923; assay: microbe, parasite or virus in culture
Procedure, shortened: as §1

[8] = in vitro; conditions: human
Procedure, shortened: (§2)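 HK-2 cells seeded 2000 cells/well in DMEM/F12 with 10% FBS, grown 24 h, then exposed to compounds (300 µM to 2.3 µM, 2-fold series; colistin/polymyxin B 1 mM to 7.8 µM) for 24 h at 37 °C. LDH in medium read at 450 nm after 30 min; cytotoxicity % relative to 1% Triton X-100 and untreated cells.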

[9] = test system: ATCC reference strains (Escherichia coli, Klebsiella pneumoniae, A. baumannii, and P. aeruginosa)
Method: All compounds synthesised in this study were assessed for their minimum inhibitory concentrations (MIC, mg/L) by broth microdilution assay against five antibiotic-sensitive and resistant ATCC reference strains covering the Gram-negative ESKAPE pathogens (Escherichia coli, Klebsiella pneumoniae, A. baumannii, and P. aeruginosa) (Table 1, Table 2 and Table 3). Staphylococcus aureus was also included as a representative Gram-positive bacterial strain. […] Polymyxin B 1, colistin 2, vancomycin and gentamicin were used as positive inhibitor comparator compounds. Compounds were counter-screened against human proximal tubular epithelial cells (HK-2), using LDH release as a general indicator of cellular toxicity.

[10] = test system: P. aeruginosa FADDI PA070; assay: microbe, parasite or virus in culture
Procedure, shortened: as §1

[11] = test system: human proximal tubular epithelial cells (HK-2); assay: in vitro
Procedure, shortened: as §2

[12] = Pmx-resistant clinical isolate, broth microdilution, 18 h
[13] = ESBL strain, broth microdilution, 18 h
[14] = broth microdilution, 18 h, 37 °C
[15] = NDM-1 positive strain, broth microdilution, 18 h
[16] = Gram-positive strain, broth microdilution, 18 h

Molecule	MIC A. baumannii ATCC 19606 ([1]; ATCC 19606, 18 h) [µg/mL]	MIC K. pneumoniae ATCC 700603 ([2]; ATCC 700603, 18 h) [µg/mL]	MIC P. aeruginosa ATTC 27853 ([3]; ATTC 27853, 18 h) [µg/mL]	MIC E. coli ATCC 25922 ([4]; ATCC 25922, 18 h) [µg/mL]	MIC K. pneumoniae ATCC 13833 ([5]; ATCC 13833, 18 h) [µg/mL]	MIC K. pneumoniae BAA 2146 ([6]; BAA 2146, 18 h) [µg/mL]	MIC S. aureus ATCC 25923 ([7]; ATCC 25923, 18 h) [µg/mL]	CC50 at 24 h [8] [µM]	MIC P. aeruginosa FADDI PA070 [10, 12] [µg/mL]	MIC A. baumannii ATCC 19606 ([1]; broth microdilution, 18 h) [µg/mL]	MIC K. pneumoniae ATCC 700603 [2, 13] [µg/mL]	MIC P. aeruginosa ATTC 27853 ([3]; broth microdilution, 18 h) [µg/mL]	MIC E. coli ATCC 25922 [4, 14] [µg/mL]	MIC K. pneumoniae ATCC 13833 ([5]; broth microdilution, 18 h) [µg/mL]	MIC K. pneumoniae BAA 2146 [6, 15] [µg/mL]	MIC S. aureus ATCC 25923 [7, 16] [µg/mL]	further results
CCCCCCCC(=O)N[C@H](C(=O)N[C@@H](CCN)C(=O)N[C@@H]1CCNC(=O)[C@H]([C@@H](C)O)NC(=O)[C@H](CCN)NC(=O)[C@H](CCN)NC(=O)[C@H](CC(C)C)NC(=O)[C@@H](Cc2ccccc2)NC(=O)[C@H](CCN)NC1=O)[C@@H](C)O [Compound 19] (Octanoyl-T[Dab][dDab][Dab][dF]L[Dab][Dab]T; lactam 3-C)	>32	>32	>32	>32	>32	>32	>32	> 300	–	–	–	–	–	–	–	–	MIC for all strains [9]: > 32 µg/mL
CC(C)C[C@@H]1NC(=O)[C@@H](Cc2ccccc2)NC(=O)[C@H](CCN)NC(=O)[C@@H](NC(=O)[C@@H](CCN)NC(=O)[C@@H](NC(=O)CCCCCc2ccccc2)[C@@H](C)O)CCNC(=O)[C@H]([C@@H](C)O)NC(=O)[C@H](CCN)NC(=O)[C@H](CCN)NC1=O [Compound 25] ({Hexanoyl(6-Ph)}-T[dDab][Dab][Dab][dF]L[Dab][Dab]T; lactam 3-C)	2 (≈ 1.76 µM)	1 (≈ 0.879 µM)	2 (≈ 1.76 µM)	0.5 (≈ 0.44 µM)	4 (≈ 3.52 µM)	0.5 (≈ 0.44 µM)	>32	> 300	–	–	–	–	–	–	–	–	MIC P. aeruginosa FADDI PA070 ([10]; FADDI PA070, 18 h): 8 µg/mL (≈ 7.03 µM); MIC against the ATCC strains [9]: 0.5 to 4 µg/mL
CCCCCCCC(=O)N[C@H](C(=O)N[C@@H](CO)C(=O)N[C@H]1CCNC(=O)[C@H]([C@@H](C)O)NC(=O)[C@H](CCN)NC(=O)[C@H](CCN)NC(=O)[C@H](CC(C)C)NC(=O)[C@@H](Cc2ccccc2)NC(=O)[C@H](CCN)NC1=O)[C@@H](C)O [Compound 35] (Octanoyl-TS[Dab][Dab][dF]L[Dab][Dab]T; lactam 3-C)	>32	32 (≈ 29.7 µM)	16 (≈ 14.9 µM)	–	>32	16 (≈ 14.9 µM)	>32	220	–	–	–	–	–	–	–	–	MIC for most strains [9]: 16 to 32 µg/mL
CCCCCCCC(=O)N[C@@H](CCN)C(=O)N[C@H](C(=O)N[C@@H](CCN)C(=O)N[C@H]1CCNC(=O)[C@H]([C@@H](C)O)NC(=O)[C@H](CCN)NC(=O)[C@H](CCN)NC(=O)[C@H](CC(C)C)NC(=O)[C@@H](Cc2ccccc2)NC(=O)[C@H](CCN)NC1=O)[C@@H](C)O [PmxB3, polymyxin B3, reference compound] (Octanoyl-[Dab]T[Dab][Dab][Dab][dF]L[Dab][Dab]T; lactam 4-C)	–	1 (≈ 0.841 µM)	0.5 (≈ 0.42 µM)	–	2 (≈ 1.68 µM)	0.5 (≈ 0.42 µM)	>32	> 300	–	–	–	–	–	–	–	–	fold more active than nonapeptide 8 ([9]; MIC comparison against most strains): 2- to 4 fold
colistin [Col 2, reference compound]	–	–	–	–	–	–	–	–	>32	0.25	0.25	0.5	0.25	0.25	0.25	>32	CC50 [11]: > 300 µM
polymyxin B [PmxB 1, reference compound]	–	–	–	–	–	–	–	–	32	0.25	0.5	0.5	1	1	0.25	>32	CC50 ([11]; read-out: CC50 HK-2, LDH release, 24 h incubation): > 300 µM
